# From the SangsterLogP compilation
# Experiment: method code SF-AS, from DOI: 10.1080/02772240109358997
row,Compound,logP
1,CCOC(=O)C(Cc1ccccc1)(Cc1ccccc1)S(=O)(=O)c1ccc([N+](=O)[O-])cc1,3.4
2,COC(=O)C(C)S(=O)(=O)c1ccc([N+](=O)[O-])cc1 (stereo not drawn),1.06
3,CC(C(=O)OC1CCCCC1)S(=O)(=O)c1ccc([N+](=O)[O-])cc1 (stereo not drawn),2.82
4,CCCCC(CCCC)(C(=O)OC(C)C)S(=O)(=O)c1ccc([N+](=O)[O-])cc1,4.06
5,CCOC(=O)C(=Cc1ccccc1)S(=O)(=O)c1ccc([N+](=O)[O-])cc1,3.2
6,Cc1ccc(S(=O)(=O)C(=Cc2ccccc2)C(=O)OC(C)C)cc1,3.92
7,CC(C)OC(=O)C(=Cc1ccccc1)S(=O)(=O)c1ccc([N+](=O)[O-])cc1,3.62
8,CCOC(=O)CC(C(=O)OC)S(=O)(=O)c1ccc([N+](=O)[O-])cc1 (stereo not drawn),1.4
9,COC(=O)C(C)(C)S(=O)(=O)c1ccc([N+](=O)[O-])cc1,1.38
10,CC(C)OC(=O)C(=Cc1ccccc1)S(=O)(=O)c1ccc(Cl)cc1,4.18
11,COC(=O)C(=Cc1ccccc1)S(=O)(=O)c1ccc([N+](=O)[O-])cc1,2.9
12,CCC(CC)(C(=O)OC)S(=O)(=O)c1ccc([N+](=O)[O-])cc1,2.24
13,CCOC(=O)CC(CC(=O)OCC)(C(=O)OC(C)C)S(=O)(=O)c1ccc([N+](=O)[O-])cc1,3.56
14,CCOC(=O)C(C)(c1cccc2ccccc12)S(=O)(=O)c1ccc([N+](=O)[O-])cc1 (stereo not drawn),4.4
15,CC(C)OC(=O)CC(C(=O)OC(C)C)S(=O)(=O)c1ccc([N+](=O)[O-])cc1 (stereo not drawn),2.18
16,CCCCC(CCCC)(C(=O)OCC)S(=O)(=O)c1ccc([N+](=O)[O-])cc1,3.81
17,C=CCC(C)(C(=O)OCC)S(=O)(=O)c1ccc([N+](=O)[O-])cc1 (stereo not drawn),2.3
18,CC(C)COC(=O)C(=Cc1ccccc1)S(=O)(=O)c1ccc([N+](=O)[O-])cc1,3.68
